# Data taken from US11466029B2, “Compounds useful to treat influenza virus infections” (Nanjing Zhengxiang Pharmaceuticals Co., Ltd., priority 2019, dated 2022).
# Entries after “also recorded” stand apart in the source; their conditions may differ. Like-named read-outs stand apart in the source and are kept apart here.
# How the values were obtained:
# [1] = target: Influenza Virus CEN PAn enzyme (UniProt P03433); assay type: biochemical; conditions: read-out: CEN IC50
# [2] = Liver microsomal stability; conditions: human, liver microsomes
# [3] = Liver microsomal stability; conditions: cynomolgus monkey, liver microsomes
# [4] = Liver microsomal stability; conditions: dog, liver microsomes
# [5] = Liver microsomal stability; conditions: rat, liver microsomes
# [6] = Liver microsomal stability; conditions: mouse, liver microsomes
# [7] = system: IFV A/PR/8/34 (H1N1); assay: microbe, parasite or virus in culture; assay type: cell-based; conditions: Influenza A virus, MDCK, 120 h
# [8] = system: IFV A/WSN/33 (H1N1); assay: microbe, parasite or virus in culture; assay type: cell-based; conditions: Influenza A virus, MDCK, 120 h
# [9] = system: A/California/07/2009 (H1N1)pdm09; assay: microbe, parasite or virus in culture; assay type: cell-based; conditions: Influenza A virus, H1N1, MDCK, 120 h
# [10] = system: A/Hongkong/8/68 (H3N2); assay: microbe, parasite or virus in culture; assay type: cell-based; conditions: Influenza A virus, H3N2, MDCK, 120 h
# [11] = system: B/Florida/78/2015; assay: microbe, parasite or virus in culture; assay type: cell-based; conditions: Influenza B virus, 120 h
# [12] = system: B/Lee/40; assay: microbe, parasite or virus in culture; assay type: cell-based; conditions: Influenza B virus, 120 h
# [13] = in vitro; conditions: dog
# [14] = in vivo; cited from earlier work
# [15] = system: A/Weiss/43 (H1N1); assay: microbe, parasite or virus in culture; assay type: cell-based; conditions: Influenza A virus, H1N1, MDCK, 120 h
# [16] = system: influenza virus; assay type: cell-based
# [17] = system: influenza virus PR/8/34; parameters: species or system Balb/c mice; conditions: in vivo; for body weight loss: 5 mg/kg
# [18] = Pharmacokinetics in Rats; assay type: in vivo; parameters: AUClast: unit not given here; conditions: non-fasted male SD rats, plasma B-1
# Procedure: C-1 was administered to 3 non-fasted male SD rats via oral gavage at 3 mg/kg.
# [19] = system: MDCK cells
# [20] = male CD-1 mice, plasma B-1
# Procedure: (§1) B-1 was administered to male CD-1 mice (4-6 weeks old, 20-30 grams, 3 animals each group) via intravenous (IV) bolus at 1 mg/kg and by oral gavage (PO) at 10 mg/kg. […] All animals had free access to food and water prior to dosing. Blood samples (˜0.03 mL each time point) were collected via the jugular vein into tubes containing sodium heparin as the anticoagulant at 0.033, 0.083, 0.25, 0.5, 1, 2, 4, 8 and 24 hours post dose for IV administration and 0.083, 0.25, 0.5, 1, 2, 4, 8 and 24 hours post dose for PO administration. The blood samples were then centrifuged for 5 minutes in a centrifuge refrigerated at 4° C. The resultant plasma samples were analyzed using LC/MS/MS to determine concentrations of B-1. Non-compartmental model with WinNonlin (Phoenix™, version 8.0) software was used to calculate pharmacokinetic (PK) parameters.
# [21] = for AUClast: plasma B-1
# Procedure: (§2) B-1 was administered to male cynomolgus monkeys (2-5 years old, 2-5 kg, 3 animals each group) via intravenous (IV) bolus at 0.25 mg/kg and by oral gavage (PO) at 1 mg/kg; Animals in the IV group had free access to food and water (non-fasted) and animals in the PO group were fasted overnight prior to dosing (fasted). C-1 was administered to male cynomolgus monkeys (fasted or non-fasted, 3 each group) via oral gavage at 1 mg/kg. Blood samples (˜0.5 mL each time point) were collected via the jugular vein into tubes containing potassium ethylenediaminetetraacetic acid (K2EDTA) as the anticoagulant at 0.033, 0.083, 0.25, 0.5, 1, 2, 4, 8 and 24 hours post dose for IV administration and 0.083, 0.25, 0.5, 1, 2, 4, 8 and 24 hours post dose for PO administration. The blood samples were then centrifuged for 10 minutes in a centrifuge refrigerated at 2-8° C. The resultant plasma samples were analyzed using LC/MS/MS to determine concentrations of B-1. Non-compartmental model with WinNonlin (Phoenix™, version 6.1) software was used to calculate pharmacokinetic (PK) parameters.
# [22] = in vivo; conditions: male, CD-1, mouse, iv, 1 mg/kg
# Procedure: as §1
# [23] = in vivo; conditions: male, cynomolgus monkey, iv, 0.25 mg/kg
# Procedure: as §2
# [24] = Toxicity study, oral gavage once daily for 7 days; assay type: in vivo, Sprague Dawley (SD) rats
# Procedure: A toxicity study of C-1 was conducted in Sprague Dawley (SD) rats. C-1 at 20, 100 and 500 mg/kg or vehicle (0.5% w/v CMC-Na and 0.1% v/v Tween-80 in DI water) was administered via oral gavage to Sprague Dawley rats (7-9 weeks, about 250-300 grams each for males and about 200-250 grams each for females) once daily for 7 days. 8 females and 8 males in each dose group were used.
# [25] = Sprague-Dawley (SD), rat, IV 0.25 mg/kg
# [26] = PO 1 mg/kg, fasted male cynomolgus monkeys
# [27] = B/Florida/78/2015, MDCK cells, 5 days, read-out: EC50
# [28] = B/Lee/40, MDCK cells, 5 days, read-out: EC50
compound,measurement,setting,value
"O=C1c2c(O)c(=O)ccn2N(C2c3ccccc3[Se]Cc3c2ccc(F)c3F)C2COCCN12 (single isomer, unassigned) [Compound A-1-P1, 12-(7,8-Difluoro-6,11-Dihydrodibenzo[b,e]Selenepin-11-yl)-7-Hydroxy-3,4,12,12a-Tetrahydro-1H-[1,4]Oxazino[3,4-c]Pyrido[2,1-f][1,2,4]Triazine-6,8-Dione]",IC50,[1],42 nM
"O=C1c2c(O)c(=O)ccn2N(C2c3ccccc3[Se]Cc3c2ccc(F)c3F)C2COCCN12 (single isomer, unassigned) [Compound A-1-P2, 12-(7,8-Difluoro-6,11-Dihydrodibenzo[b,e]Selenepin-11-yl)-7-Hydroxy-3,4,12,12a-Tetrahydro-1H-[1,4]Oxazino[3,4-c]Pyrido[2,1-f][1,2,4]Triazine-6,8-Dione]",IC50,[1],25 nM
same,half-life,[2],60.9 h
same,microsomal CLint,[2],2.2 µL/min/mg
same,half-life,[3],1.42 h
same,microsomal CLint,[3],16 µL/min/mg
same,half-life,[4],6.25 h
same,microsomal CLint,[4],4.5 µL/min/mg
same,half-life,[5],2.88 h
same,microsomal CLint,[5],8.3 µL/min/mg
same,half-life,[6],4.77 h
same,microsomal CLint,[6],5.2 µL/min/mg
"CP(C)(=O)c1cn2c(c(O)c1=O)C(=O)N1CCOCC1N2C1c2ccccc2SCc2c1ccc(F)c2F (single isomer, unassigned) [Compound E-1a, 12-(7,8-difluoro-6,11-dihydrodibenzo[b,e]thiepin-11-yl)-9-(dimethylphosphoryl)-7-hydroxy-3,4,12,12a-tetrahydro-1H-[1,4]oxazino[3,4-c]pyrido[2,1-f][1,2,4]triazine-6,8-dione]",IC50,[1],31 nM
"CP(C)(=O)c1cn2c(c(O)c1=O)C(=O)N1CCOCC1N2C1c2ccccc2SCc2c1ccc(F)c2F (single isomer, unassigned) [Compound E-1b, 12-(7,8-difluoro-6,11-dihydrodibenzo[b,e]thiepin-11-yl)-9-(dimethylphosphoryl)-7-hydroxy-3,4,12,12a-tetrahydro-1H-[1,4]oxazino[3,4-c]pyrido[2,1-f][1,2,4]triazine-6,8-dione]",IC50,[1],32 nM
"O=C1c2c(O)c(=O)ccn2N([C@@H]2c3ccccc3SCc3c2ccc(F)c3F)[C@@H]2COCCN12 [Baloxavir acid, reference compound]",IC50,[1],14 nM
same,EC50,[7],0.73 nM
same,EC50,[8],0.44 nM
same,EC50,[9],0.66 nM
same,EC50,[10],1.7 nM
same,EC50,[11]; MDCK,16 nM
same,EC50,[12]; MDCK,6.3 nM
same,CC50,[13],12000 nM
same,oral availability,[14],poor oral availability
"O=C1c2c(O)c(=O)ccn2N([C@@H]2c3ccccc3[Se]Cc3c2ccc(F)c3F)[C@@H]2COCCN12 [Compound B-1, (R)-12-((S)-7,8-Difluoro-6,11-Dihydrodibenzo[b,e]Selenepin-11-yl)-7-Hydroxy-3,4,12,12a-Tetrahydro-1H-[1,4]Oxazino[3,4-c]Pyrido[2,1-f][1,2,4]Triazine-6,8-Dione]",IC50,[1],15 nM
same,EC50,[7],1.1 nM
same,EC50,[8],0.32 nM
same,EC50,[15],1.2 nM
same,EC50,[9],0.37 nM
same,EC50,[10],0.68 nM
same,EC50,[11]; MDCK,25 nM
same,EC50,[12]; MDCK,12 nM
same,antivirus activity,[16],potent antivirus activity
same,antivirus efficacy in influenza virus PR/8/34 mouse model,[17],potent antivirus efficacy; also recorded: potent antivirus activity
same,survival,"[17]; mouse, po",survived throughout the study
same,body weight loss,"[17]; mouse, po",minimal
same,AUClast,[18]; IV 0.25 mg/kg,84
same,AUClast,[18]; PO 3 mg/kg,123
same,AUC(0-inf),[18]; [25],92 ng·h/mL
same,half-life,[18]; [25],4 h
same,cytotoxicity,[19],little cytotoxicity
same,AUClast,[20]; IV 1 mg/kg,601
same,AUClast,[20]; PO 10 mg/kg,2129
same,AUClast,"[21]; IV 0.25 mg/kg, non-fasted male cynomolgus monkeys",204
same,AUClast,[21]; [26],231
same,AUC(0-inf),[22],608 ng·h/mL
same,half-life,[22],4.1 h
same,AUC(0-inf),[23],257 ng·h/mL
same,half-life,[23],11 h
same,CC50,[13],13000 nM
COC(=O)OCOc1c2n(ccc1=O)N(C1c3ccccc3[Se]Cc3c1ccc(F)c3F)[C@@H]1COCCN1C2=O (some centres unmarked) [Compound C-1],IC50,[1],1550 nM
same,antivirus efficacy in influenza virus PR/8/34 mouse model,[17],potent antivirus activity
same,improvement in body weight loss,"[17]; mouse, po",significant dose-dependent improvement
same,survival,"[17]; mouse, po",survived throughout the study
same,body weight loss,"[17]; mouse, po",minimal
same,AUClast,[18]; PO 3 mg/kg,280
same,MTD at 7 days,"[24]; both sexes, Sprague Dawley, rat, in vivo, oral gavage once daily for 7 days, read-out: maximum tolerated dose (MTD)",> 500 mg/kg/day
same,"toxic findings (clinical observation, body weight, food consumption, gross pathology)","[24]; in words, 20, 100 and 500 mg/kg oral gavage once daily for 7 days",No C-1-related toxic findings
same,tolerability,"[24]; in words, oral gavage once daily for 7 days",well tolerated
same,AUClast,[20]; PO 10 mg/kg,2834
same,AUClast,[21]; [26],414
same,AUClast,"[21]; PO 1 mg/kg, non-fasted male cynomolgus monkeys",400
same,food effect / impact of feeding condition on oral absorption,"[21]; in words, cynomolgus monkeys, fasted vs non-fasted",did not impact oral absorption
"CP(C)(=O)c1cn2c(c(O)c1=O)C(=O)N1CCOC[C@H]1N2[C@@H]1c2ccccc2SCc2c1ccc(F)c2F [Compound E-1c, (R)-12-((S)-7,8-difluoro-6,11-dihydrodibenzo[b,e]thiepin-11-yl)-9-(dimethylphosphoryl)-7-hydroxy-3,4,12,12a-tetrahydro-1H-[1,4]oxazino[3,4-c]pyrido[2,1-f][1,2,4]triazine-6,8-dione]",EC50,[7],68 nM
same,EC50,[8],58 nM
same,EC50,[15],133 nM
same,EC50,[9],129 nM
same,EC50,[10],207 nM
same,EC50,[11]; [27],> 1000 nM
same,EC50,[12]; [28],> 1000 nM
same,CC50,[13],> 100000 nM
"CCP(=O)(CC)c1cn2c(c(O)c1=O)C(=O)N1CCOC[C@H]1N2[C@@H]1c2ccccc2SCc2c1ccc(F)c2F [Compound F-1, (R)-9-(Diethylphosphoryl)-12-((S)-7,8-Difluoro-6,11-Dihydrodibenzo[b,e]-Thiepin-11-yl)-7-Hydroxy-3,4,12,12a-Tetrahydro-1H-[1,4]Oxazino[3,4-c]Pyrido[2,1-f][1,2,4]Triazine-6,8-Dione]",EC50,[7],> 100 nM
same,EC50,[8],57 nM
same,EC50,[15],22 nM
same,EC50,[9],125 nM
same,EC50,[10],310 nM
same,EC50,[11]; [27],> 1000 nM
same,EC50,[12]; [28],> 1000 nM
same,CC50,[13],> 100000 nM
"CCC(CC)O[C@@H]1C=C(C(=O)O)C[C@H](N)[C@H]1NC(C)=O [Oseltamivir acid, reference compound]",EC50,[7],> 100000 nM
same,EC50,[8],> 100000 nM
same,EC50,[15],476 nM
same,EC50,[9],231 nM
same,EC50,[10],20 nM
same,EC50,[11]; [27],8480 nM
same,EC50,[12]; [28],749 nM
same,CC50,[13],> 100000 nM
COC(=O)OCOc1c2n(ccc1=O)N([C@@H]1c3ccccc3SCc3c1ccc(F)c3F)[C@@H]1COCCN1C2=O [baloxavir marboxil],oral availability,[14],poor oral availability
"CCOC(=O)C1=C[C@@H](OC(CC)CC)[C@H](NC(C)=O)[C@@H](N)C1 [oseltamivir, reference compound]",improvement in body weight loss,"[17]; mouse, po",did not result in substantial improvement
same,mice died,"[17]; mouse, po",60%
